Data from US7605265B2, “Heterodimers and methods of using them” (priority 2007, dated 2009).

Columns and labels:
[1] = biological target: T1, acetylcholinesterase (AChE) (Rattus norvegicus, UniProt P37136); assay: In vitro inhibition of AChE (cholinesterase assay, Ellman method); format: biochemical; conditions: for times more potent than bis(7)-tacrine / times more potent than tacrine: AChE inhibition; for Selectivity AchE*: IC50 (BChE)/IC50 (AChE); for IC50: enzyme prepared from rat cortex
T1 construct: from tissue; host or cells: rat brain cortex
T1 sequence (P37136 32-614): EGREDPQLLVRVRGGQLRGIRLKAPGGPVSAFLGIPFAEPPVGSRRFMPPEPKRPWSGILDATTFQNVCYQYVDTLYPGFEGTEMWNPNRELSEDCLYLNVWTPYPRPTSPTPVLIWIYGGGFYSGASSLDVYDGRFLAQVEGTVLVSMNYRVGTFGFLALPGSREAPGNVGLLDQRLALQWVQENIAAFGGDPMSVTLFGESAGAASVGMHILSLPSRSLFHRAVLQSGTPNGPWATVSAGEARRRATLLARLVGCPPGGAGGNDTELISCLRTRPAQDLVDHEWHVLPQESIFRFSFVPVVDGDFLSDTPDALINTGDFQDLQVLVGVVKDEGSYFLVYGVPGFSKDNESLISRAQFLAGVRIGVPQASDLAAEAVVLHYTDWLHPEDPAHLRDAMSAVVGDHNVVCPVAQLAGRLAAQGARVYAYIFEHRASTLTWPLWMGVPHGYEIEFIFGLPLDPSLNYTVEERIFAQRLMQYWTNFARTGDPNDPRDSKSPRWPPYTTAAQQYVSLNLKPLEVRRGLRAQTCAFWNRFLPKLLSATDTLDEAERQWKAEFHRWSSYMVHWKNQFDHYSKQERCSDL
Description: The in vitro inhibition of the enzymes acetylcholinesterase (AChE) and butyrylcholinesterase (BChE) were assessed. BChE, like AChE, breaks down acetylcholine (ACh) but is found in plasma and other organs such as the liver, skin and gastrointestinal tract.
The enzymes, AChE and BChE, used in the inhibition studies were prepared from the cortex and serum of decapitated rats, respectively.

[2] = biological target: T2, butyrylcholinesterase (BChE) (Rattus norvegicus, UniProt Q9JKC1); assay: biochemical
T2 construct: from tissue; host or cells: rat serum

transient focal ischemia = assay: MCAO (middle carotid artery occlusion model), transient focal ischemia; format: in vivo, mice; conditions: for infarct volume and hemispheric swelling (in words): 5 minutes after ischemia (compound A: 0.05 and 0.1 mg/kg), FIG. 5b, 5f; for neurological deficits induced by ischemia (in words): administered 5 minutes after ischemia
Description: The MCAO (middle carotid artery occlusion model) was performed to investigate the protective effects of compounds A, B and C on the brain when the brain was exposed to transient focal ischemia (lack of oxygen), emulating brain conditions during a stroke. […] The ability of the novel compounds to protect against the appearance of these neurological deficits was examined using a four-point scale neurological scoring system (Mann Whitney U test). For each of the following observable signs, the distribution of test subjects was noted (with and without treatment with the invention after ischemia): (0) no observable neurological deficits (normal); (1) failure to extend the left forepaw fully (mild); (2) circling to the contralateral side (moderate); and (3) loss of walking and righting reflex (severe). • (ii) The brains of the test subjects slices were sectioned into five pieces and the infarct area and volume of each slice was measured. The % of infarct area in test subjects treated with the invention after ischemia was compared to that of the control group for each brain slice. • (iii) Hemispheric brain swelling and infarct volume (the area of dead tissue caused by inadequate blood supply) was measured for test subjects treated with the invention after ischemia, and compared to that of the control group.
The compounds were administered 5 minutes after ischemia, 5 minutes after reperfusion, or 6 hours after ischemia. FIGS. 5a to 5f show results for the heterodimers compound B, C or A respectively, when administered 5 minutes after ischemia or reperfusion. FIGS. 5g and 5h show the results when the novel heterodimers were administered 6 hours after ischemia.
Compound B was administered at 5 minutes after ischemia. Distribution of neurological scores based on a four-point scale neurological scoring system (Mann Whitney U test): (0) no observable neurological deficits (normal); (1) failure to extend the left forepaw fully (mild); (2) circling to the contralateral side (moderate); and (3) loss of walking and righting reflex (severe).
The brain was sectioned into five pieces, each 2-mm thick. The infarct area of each posterior surface was analyzed by an image analysis program. The percentage of infarct area and volume were calculated and presented as the percentage of the infarct area of the contralateral hemisphere to eliminate the contribution of edema to the ischemic lesion.
The infarct area of each posterior surface was analyzed by an image analysis program. Hemispheric brain swelling was calculated as follows (ipsilateral volume−contralateral volume)/contralateral volume×100%.

[3] = 0.005 mg/kg, 5 minutes after ischemia
[4] = 0.05 mg/kg, 5 minutes after ischemia
[5] = 0.1 mg/kg, 5 minutes after ischemia
[6] = 0.2 mg/kg, 5 minutes after ischemia
[7] = 0.005 μg/kg, 6 hours after ischemia
[8] = 0.05 μg/kg, 5 minutes after ischemia
[9] = 0.05 μg/kg, 6 hours after ischemia
[10] = 0.5 μg/kg, 5 minutes after ischemia

T2 sequence (Q9JKC1 24-597): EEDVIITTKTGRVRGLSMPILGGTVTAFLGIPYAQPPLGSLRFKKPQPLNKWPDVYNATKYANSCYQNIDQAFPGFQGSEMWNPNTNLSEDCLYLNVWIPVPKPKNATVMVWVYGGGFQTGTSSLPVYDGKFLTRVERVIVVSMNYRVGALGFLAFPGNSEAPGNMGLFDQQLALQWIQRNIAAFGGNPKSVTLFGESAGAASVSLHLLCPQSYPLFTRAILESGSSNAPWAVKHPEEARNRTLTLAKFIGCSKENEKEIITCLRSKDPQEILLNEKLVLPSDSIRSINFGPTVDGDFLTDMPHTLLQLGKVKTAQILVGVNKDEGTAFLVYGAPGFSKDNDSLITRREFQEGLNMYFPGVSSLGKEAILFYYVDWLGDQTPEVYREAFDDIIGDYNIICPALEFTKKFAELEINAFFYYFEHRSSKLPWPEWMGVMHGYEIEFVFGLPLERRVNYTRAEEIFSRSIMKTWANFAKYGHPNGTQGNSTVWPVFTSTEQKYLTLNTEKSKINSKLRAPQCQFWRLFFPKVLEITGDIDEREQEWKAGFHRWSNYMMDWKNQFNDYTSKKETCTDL

O=c1ccc2c([nH]1)CCC(NCCCNc1c3c(nc4cc(Cl)ccc14)CCCC3)C2 (centres unmarked) [Compound A]
times more potent than bis(7)-tacrine [1]: ~53 | times more potent than tacrine [1]: ~200 | Selectivity AchE* [1]: 227.23 | IC50 [1]: 0.25 ± 0.05 nM | IC50 [2]: 56.7 ± 25 nM | % Infarct area in brain slice # 1 (transient focal ischemia; [3]): 2.2 ± 2.0% | % Infarct area in brain slice # 2 (transient focal ischemia; [3]): 48.8 ± 4.3% | % Infarct area in brain slice # 3 (transient focal ischemia; [3]): 49.3 ± 4.4% | % Infarct area in brain slice # 4 (transient focal ischemia; [3]): 26.5 ± 9.3% | % Infarct area in brain slice # 5 (transient focal ischemia; [3]): −4.3 ± 0.6% | Hemispheric swelling (%) (transient focal ischemia; [3]): 10.3 ± 0.4% | Infarct volume (%) (transient focal ischemia; [3]): 31.3 ± 4.3% | Observed Neurological Deficits Mean ± SEM (transient focal ischemia; [3]): 1.6 ± 0.2 | Observed Neurological Deficits, score 0 (number of animals) (transient focal ischemia; [3]): 0 | Observed Neurological Deficits, score 1 (number of animals) (transient focal ischemia; [3]): 2 | Observed Neurological Deficits, score 2 (number of animals) (transient focal ischemia; [3]): 3 | Observed Neurological Deficits, score 3 (number of animals) (transient focal ischemia; [3]): 0 | n (dead/total): dead/total (transient focal ischemia; [3]): 5 (5/10) | % Infarct area in brain slice # 1 (transient focal ischemia; [4]): −0.4 ± 2.2% | % Infarct area in brain slice # 2 (transient focal ischemia; [4]): 39.1 ± 2.4 % | % Infarct area in brain slice # 3 (transient focal ischemia; [4]): 44.5 ± 0.9 % | % Infarct area in brain slice # 4 (transient focal ischemia; [4]): 17.1 ± 3.2 % | % Infarct area in brain slice # 5 (transient focal ischemia; [4]): −6.3 ± 2.8% | Hemispheric swelling (%) (transient focal ischemia; [4]): 15.5 ± 1.1% | Infarct volume (%) (transient focal ischemia; [4]): 24.8 ± 1.1 % | Observed Neurological Deficits Mean ± SEM (transient focal ischemia; [4]): 1.2 ± 0.2 | Observed Neurological Deficits, score 0 (number of animals) (transient focal ischemia; [4]): 0 | Observed Neurological Deficits, score 1 (number of animals) (transient focal ischemia; [4]): 5 | Observed Neurological Deficits, score 2 (number of animals) (transient focal ischemia; [4]): 1 | Observed Neurological Deficits, score 3 (number of animals) (transient focal ischemia; [4]): 0 | n (dead/total): dead/total (transient focal ischemia; [4]): 6 (1/7) | % Infarct area in brain slice # 1 (transient focal ischemia; [5]): 2.0 ± 1.8% | % Infarct area in brain slice # 2 (transient focal ischemia; [5]): 49.5 ± 2.0 % | % Infarct area in brain slice # 3 (transient focal ischemia; [5]): 48.4 ± 1.8 % | % Infarct area in brain slice # 4 (transient focal ischemia; [5]): 10.4 ± 3.3 % | % Infarct area in brain slice # 5 (transient focal ischemia; [5]): −9.9 ± 1.7% | Hemispheric swelling (%) (transient focal ischemia; [5]): 12.5 ± 1.1% | Infarct volume (%) (transient focal ischemia; [5]): 26.5 ± 1.4 % | Observed Neurological Deficits Mean ± SEM (transient focal ischemia; [5]): 1.2 ± 0.1 | Observed Neurological Deficits, score 0 (number of animals) (transient focal ischemia; [5]): 0 | Observed Neurological Deficits, score 1 (number of animals) (transient focal ischemia; [5]): 7 | Observed Neurological Deficits, score 2 (number of animals) (transient focal ischemia; [5]): 2 | Observed Neurological Deficits, score 3 (number of animals) (transient focal ischemia; [5]): 0 | n (dead/total): dead/total (transient focal ischemia; [5]): 9 (4/13) | % Infarct area in brain slice # 1 (transient focal ischemia; [6]): 1.3 ± 0.7% | % Infarct area in brain slice # 2 (transient focal ischemia; [6]): 44.7 ± 6.6% | % Infarct area in brain slice # 3 (transient focal ischemia; [6]): 49.0 ± 3.8% | % Infarct area in brain slice # 4 (transient focal ischemia; [6]): 37.3 ± 3.8% | % Infarct area in brain slice # 5 (transient focal ischemia; [6]): −3.3 ± 1.6% | Hemispheric swelling (%) (transient focal ischemia; [6]): 15.2 ± 1.2% | Infarct volume (%) (transient focal ischemia; [6]): 33.8 ± 1.6% | Observed Neurological Deficits Mean ± SEM (transient focal ischemia; [6]): 1.9 ± 0.7 | Observed Neurological Deficits, score 0 (number of animals) (transient focal ischemia; [6]): 0 | Observed Neurological Deficits, score 1 (number of animals) (transient focal ischemia; [6]): 2 | Observed Neurological Deficits, score 2 (number of animals) (transient focal ischemia; [6]): 4 | Observed Neurological Deficits, score 3 (number of animals) (transient focal ischemia; [6]): 1 | n (dead/total): dead/total (transient focal ischemia; [6]): 7 (4/11) | infarct area (in words) (transient focal ischemia; 0.05 and 0.1 mg/kg, 5 minutes after ischemia, FIG. 5e): improvement in the infarct area | infarct volume and hemispheric swelling (in words) (transient focal ischemia): decreases infarct volume but not hemispheric swelling | neurological deficits induced by ischemia (in words) (transient focal ischemia): reduced neurological deficits induced by ischemia

O=c1ccc2c([nH]1)CCCC2NCCCCCCCNc1c2c(nc3cc(Cl)ccc13)CCCC2 (centres unmarked) [Compound B]
times more potent than bis(7)-tacrine [1]: ~1885 | times more potent than tacrine [1]: ~20471 | Selectivity AchE* [1]: 4563 | IC50 [1]: 0.0068 ± 0.003 nM | IC50 [2]: 31.1 ± 1.96 nM | % Infarct area in brain slice # 1 (transient focal ischemia; [7]): 11.9 ± 4.3% | % Infarct area in brain slice # 2 (transient focal ischemia; [7]): 43.4 ± 6.5% | % Infarct area in brain slice # 3 (transient focal ischemia; [7]): 40.1 ± 4.7 % | % Infarct area in brain slice # 4 (transient focal ischemia; [7]): 24.3 ± 7.5% | % Infarct area in brain slice # 5 (transient focal ischemia; [7]): −1.4 ± 1.0% | Hemispheric swelling (%) (transient focal ischemia; [7]): 7.3 ± 1.2% | Infarct volume (%) (transient focal ischemia; [7]): 28.5 ± 3.4% | Observed Neurological Deficits Mean ± SEM (transient focal ischemia; [7]): 1.2 ± 0.2 | Observed Neurological Deficits, score 0 (number of animals) (transient focal ischemia; [7]): 0 | Observed Neurological Deficits, score 1 (number of animals) (transient focal ischemia; [7]): 7 | Observed Neurological Deficits, score 2 (number of animals) (transient focal ischemia; [7]): 2 | Observed Neurological Deficits, score 3 (number of animals) (transient focal ischemia; [7]): 0 | n (dead/total): dead/total (transient focal ischemia; [7]): 9 (0/9) | % Infarct area in brain slice # 1 (transient focal ischemia; [8]): 11.5% | % Infarct area in brain slice # 2 (transient focal ischemia; [8]): 42.6 ± 4.8 % | % Infarct area in brain slice # 3 (transient focal ischemia; [8]): 40.0 ± 6.6 % | % Infarct area in brain slice # 4 (transient focal ischemia; [8]): 34.0% | % Infarct area in brain slice # 5 (transient focal ischemia; [8]): 0.1% | Hemispheric swelling (%) (transient focal ischemia; [8]): 6.5 ± 1.5% | Infarct volume (%) (transient focal ischemia; [8]): 31.2 ± 4.6 % | Observed Neurological Deficits Mean ± SEM (transient focal ischemia; [8]): 1.1 ± 0.1 | Observed Neurological Deficits, score 0 (number of animals) (transient focal ischemia; [8]): 0 | Observed Neurological Deficits, score 1 (number of animals) (transient focal ischemia; [8]): 8 | Observed Neurological Deficits, score 2 (number of animals) (transient focal ischemia; [8]): 1 | Observed Neurological Deficits, score 3 (number of animals) (transient focal ischemia; [8]): 0 | n (dead/total): dead/total (transient focal ischemia; [8]): 9 (2/11) | infarct area in brain slices (in words) (transient focal ischemia; 0.05 μg/kg, 5 minutes after ischemia, FIG. 5a): reduced the infarct area in brain slices #2 and #3 | % Infarct area in brain slice # 1 (transient focal ischemia; [9]): 15.7 ± 2.9% | % Infarct area in brain slice # 2 (transient focal ischemia; [9]): 50.5 ± 7.2% | % Infarct area in brain slice # 3 (transient focal ischemia; [9]): 41.7 ± 6.0% | % Infarct area in brain slice # 4 (transient focal ischemia; [9]): 25.2 ± 8.2% | % Infarct area in brain slice # 5 (transient focal ischemia; [9]): −1.3 ± 1.7% | Hemispheric swelling (%) (transient focal ischemia; [9]): 7.0 ± 1.5% | Infarct volume (%) (transient focal ischemia; [9]): 31.1 ± 4.8% | Observed Neurological Deficits Mean ± SEM (transient focal ischemia; [9]): 1.4 ± 0.2 | Observed Neurological Deficits, score 0 (number of animals) (transient focal ischemia; [9]): 0 | Observed Neurological Deficits, score 1 (number of animals) (transient focal ischemia; [9]): 5 | Observed Neurological Deficits, score 2 (number of animals) (transient focal ischemia; [9]): 3 | Observed Neurological Deficits, score 3 (number of animals) (transient focal ischemia; [9]): 0 | n (dead/total): dead/total (transient focal ischemia; [9]): 8 (3/12) | Observed Neurological Deficits Mean ± SEM (transient focal ischemia; [10]): 1.5 ± 0.3 | Observed Neurological Deficits, score 0 (number of animals) (transient focal ischemia; [10]): 0 | Observed Neurological Deficits, score 1 (number of animals) (transient focal ischemia; [10]): 2 | Observed Neurological Deficits, score 2 (number of animals) (transient focal ischemia; [10]): 2 | Observed Neurological Deficits, score 3 (number of animals) (transient focal ischemia; [10]): 0 | n (dead/total): dead/total (transient focal ischemia; [10]): 4 (4/8) | infarct volume and hemispheric swelling (in words) (transient focal ischemia): reduces infarct volume but not hemispheric swelling | infarct area (in words) (transient focal ischemia; 6 hours after ischemia, FIG. 5g): improvement in the infarct area | infarct volume (in words) (transient focal ischemia; 6 hours after ischemia, FIG. 5h): decreases infarct volume | neurological deficits induced by ischemia (in words) (transient focal ischemia): reduced neurological deficits induced by ischemia | neurological deficits (in words) (transient focal ischemia; administration 6 hours after ischemia): reduced neurological deficits
